Read-outs that look alike come from different tables or passages of the source.
Tests used:
[1] = tested on: A549, MDA-MB-231, HeLa, HT-29 and Jurkat cancer cell lines; assay: Antiproliferative activity over the panel of cancer cell lines; format: cell-based, human
Experimental: Colon adenocarcinoma (HT-29) and T-cell leukemia (Jurkat) cells were grown in RPMI-1640 medium (Gibco, Milano, Italy). Promyelocytic leukemia cells (HL-60), non-small cell lung carcinoma (A549), cervix carcinoma (HeLa) and breast adenocarcinoma (MDA-MB-231) cells were grown in DMEM medium (Gibco, Milano, Italy). Both media were supplemented with 115 units/mL of penicillin G (Gibco, Milano, Italy), 115 μg/mL of streptomycin (Invitrogen, Milano, Italy) and 10% fetal bovine serum (Invitrogen, Milano, Italy). All the cell lines used were purchased from the American Type Culture Collection (ATCC, Manassas, VA, USA). Stock solutions (10 mM) of the compounds were obtained by dissolving them in DMSO.
The cells were seeded in 96-well plates at the appropriate density for each cell line. After 24 h, the cells were treated by performing serial 5-fold dilutions of the tested compounds starting from a concentration of 10 μM. All experimental conditions were tested in triplicate for statistical analysis. The plates were incubated for 72 h at 37 °C in a humidified 5% CO2 atmosphere. At the end of the incubation period, 10 μL of 100 μg/mL resazurin solution was added to each well; then, the plate was re-incubated for 3–4 h. The fluorescence of the wells in each plate was monitored using a Spark 10 M spectrophotometer (Tecan Group Ltd., Mannedorf, Switzerland) with a 535 nm excitation wavelength and a 600 nm emission wavelength.

[2] = set-up: method as in PMID 31459105; settings: cited from earlier work
[3] = tested on: Bovine brain tubulin; assay: Inhibition of tubulin polymerization; format: biochemical
Experimental: (§1) Bovine brain tubulin was purified as described previously. To evaluate the effects of the compounds on tubulin assembly in vitro [35], varying concentrations were preincubated with 10 μM tubulin in 0.8 M monosodium glutamate (pH 6.6) at 30 °C and the reaction mixtures then cooled to 0 °C. After addition of GTP, the mixtures were transferred to 0 °C cuvettes in Beckman Coulter (Brea, CA, USA) DU-7400/DU-7500 recording spectrophotometers equipped with electronic temperature controllers and warmed to 30 °C, and the assembly of tubulin was observed turbidimetrically. […] Inhibition of colchicine binding to tubulin was measured as described before, except that the reaction mixtures contained 0.5 μM tubulin and 5 μM each of [^3H]colchicine and test compound. Only one DEAE-cellulose filter was used per sample, and filtration was by gravity.

[4] = tested on: Zebrafish embryos; assay: Acute toxicity assessment in zebrafish embryos; format: in vivo, Danio rerio; settings: 100 nM
Experimental: Zebrafish embryos at 72 h post fertilization (hpf) were selected for the acute toxicity assay since, at that time, morphogenesis and function of the primary organ systems are complete. Embryos at 72 hpf were assayed in a 12-well plate, 20 larvae/well for each experimental condition.
The zebrafish embryos were treated as described in the Biological Results and Discussion section using drug concentrations selected on the basis of in vitro experimental data. The drugs were added directly to the fish water from 10 mM stock solutions in DMSO of tested compounds. […] CA-4P was employed as the reference compound.
The experiment was carried out at a constant temperature (28.5 °C) in the dark, and at 24 and 48 h time points, zebrafish were subjected to visual observation and image acquisition under a stereomicroscope (Nikon SMZ745T; Nikon, Japan). The number of dead zebrafish embryos for each condition was recorded, and morphological defects were evaluated. The survival rate (%) after treatment was calculated.

[5] = tested on: Bovine brain tubulin; assay: Inhibition of [3H]colchicine binding to tubulin; settings: tubulin 0.5 µM, [3H]colchicine 5 µM, compound 5 µM
Experimental: as §1

[6] = tested on: PBL stimulated with PHA; assay: Cytotoxicity in human PBLs stimulated with PHA; format: cell-based; settings: 72 h, read-out: IC50 PBLPHA
Text: (§2) Human PBLs were obtained from healthy donors by separation on a Lymphoprep^TM (Serumwerk Bernburg AG) gradient and were used for the evaluation of the cytotoxic potential of compounds under study in normal human cells. Buffy coats were obtained from the Blood Transfusion Service, Azienda Ospedaliera of Padova and provided at this institution for research purposes without identifier. The samples were not obtained specifically for this study, and for this reason ethical approval was not required. Informed consent was obtained from blood donors according to Italian law no. 219 (21 October 2005). Data were treated by the Blood Transfusion Service according to Italian law on personal data management “Codice in materia di protezione dati personali” (Testo Unico D.L. Giugno 30, 2003 196).
(§3) After extensive washing with saline solution (BioConcept, Hank’s Buffered Saline Solution), quiescent PBLs were resuspended (1.0 × 10^6 cells/mL) in RPMI-1640 medium supplemented with 10% fetal bovine serum. Cytotoxicity evaluations were conducted also in cultures of proliferating PBLs, stimulated with […] PHA (Irvine Scientific). Both resting and proliferating lymphocytes were seeded in 96-well plates and maintained overnight at 37 °C in a humidified 5% CO2 incubator. Serial (5-fold) dilutions of the tested compounds were added, and viability was determined 72 h later by the resazurin viability assay as described above.

[7] = set-up: method as in PMID 31459105; settings: cited from earlier work; remark: listed apart in the source
[8] = tested on: quiescent PBLs; assay: Cytotoxicity in human PBLs, resting; format: cell-based; settings: PBL not stimulated with PHA, 72 h, read-out: IC50 PBLresting
Text: as §2, §3

[9] = tested on: MDA-MB-231; assay: Antiproliferative assay (resazurin, 72 h); format: cell-based, human; settings: mean ± SE, 72 h
In short: (§4)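 HT-29 cells were cultured in RPMI-1640, while MDA-MB-231, A549 and HeLa were cultured in DMEM, both with 10% FBS. Cells were treated 24 h after seeding with 5-fold serial dilutions starting at 10 μM, in triplicate, and incubated for 72 h at 37 °C. Resazurin fluorescence was read at ex 535/em 600 nm.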

[10] = tested on: HeLa; assay: Antiproliferative assay (resazurin, 72 h); format: cell-based, human
In short: as §4

[11] = tested on: Jurkat; assay: Antiproliferative assay (resazurin, 72 h); format: cell-based, human
In short: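 Compounds dissolved in DMSO as 10 mM stocks were applied to seeded Jurkat cells using 5-fold serial dilutions from 10 μM, with each condition run in triplicate. Following 72 h incubation, 10 μL of 100 μg/mL resazurin was added for 3–4 h, and fluorescence was measured at 535 nm excitation and 600 nm emission.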

[12] = tested on: HeLa cells; assay: EdU cell proliferation assay; format: cell-based, human; settings: 25 or 50 nM; 24 h
Experimental: HeLa cells were seeded in a 6-well plate and, after a 24 h incubation, were treated with the desired compounds as indicated in the Biological Results and Discussion section. Cells were re-incubated for one day and then labeled with EdU (10 μM) for 3 h under cell culture conditions. Cells were harvested by centrifugation before proceeding with the fixation step using 3.7% formaldehyde. Next, permeabilization with 0.5% Triton X-100 was performed. The reaction cocktail was prepared and added to each well (100 μL/well) following the manufacturer’s instructions (EdU-Click 488, base click, Sigma-Aldrich. Milano Italy), and the plate was incubated at room temperature for 30 min in the dark. Cells were washed 2 times with phosphate-buffered saline (PBS) before reading samples with a Beckman Coulter Cytomics FC500 instrument (λex/λem = 496/516 nm).

[13] = tested on: HeLa cells; assay: ROS production (H2DCFDA); format: cell-based, human; settings: 10, 50 or 100 nM; 24 h
Experimental: (§5) The mitochondrial potential was evaluated in HeLa cells by flow cytometry using the cell membrane permeable cationic dye 5,5′,6,6′-tetrachloro-1,1′,3,3′-tetraethyl-imidacarbocyanine iodide (JC-1) (Molecular Probes) as described previously. The production of ROS was measured in HeLa cells by flow cytometry using 2′,7′-dichlorodihydrofluorescein diacetate (H2DCFDA) (Molecular Probes) as described previously.

[14] = tested on: HeLa cells; assay: Mitochondrial membrane potential (JC-1); format: cell-based, human; settings: Figure 8A representative plot; concentration not given
Experimental: as §5

[15] = tested on: HeLa cells; assay: Apoptosis by annexin-V-FITC/PI flow cytometry; format: cell-based, human
Experimental: Surface exposure of phosphatidylserine on apoptotic cells was measured by flow cytometry with a Beckman Coulter Cytomics FC500 (Beckman Coulter Italia, Milano, Italy) by adding annexin-V conjugated to fluorescein isothiocyanate (FITC) to cells according to the manufacturer’s instructions (Annexin-V Fluos, Roche Diagnostic, Monza, Italy). Simultaneously, the cells were stained with PI. Excitation was set at 488 nm, and the emission filters were at 525 and 585 nm, respectively, for FITC and PI.

[16] = tested on: HeLa cells; assay: Cell cycle analysis (PI, flow cytometry); format: cell-based, human; settings: 24 h; for cells arrested in the G2/M phase: 100 nM
Experimental: HeLa cells were seeded at 100,000 cells per well on 6-well tissue culture plates. After 24 h, cells were treated with different test compound concentrations or DMSO for another 24 h. Cells were then fixed and stained with propidium iodide (PI). The fluorescence intensity of 10,000 single-cell events was measured with a Beckman Coulter Cytomics FC500 instrument (Beckman Coulter Italia, Milano, Italy) and the data were analyzed with MultiCycle for Windows software from Phoenix Flow Systems (San Diego, CA, USA).

[17] = tested on: A549; assay: Antiproliferative assay (resazurin, 72 h); format: cell-based, human
In short: as §4

[18] = tested on: HT-29; assay: Antiproliferative assay (resazurin, 72 h); format: cell-based, human
In short: as §4

[19] = tubulin at 10 μM, read-out: Tubulin Assembly IC50 ± SD

SMILES: COc1ccc(/C=C\c2cc(OC)c(OC)c(OC)c2)cc1O [CA-4, combretastatin A-4, reference compound]
- IC50 ([1]; Homo sapiens, against three of the five lines (not A549, HT-29), read-out: IC50's, range): 0.001 to 0.005 µM
- aqueous solubility [2]: very poor aqueous solubility
- lethality [4]: 100%
- Results (toxicity evaluation) ([4]; 72 hpf embryos): Toxic
- Colchicine Binding % Inhibition ± SD [5]: 97 ± 0.1%
- IC50 ([6]; Homo sapiens): 0.0186 ± 0.0038 µM
- biological half-life [7]: short biological half-life
- IC50 ([8]; Homo sapiens): > 10 µM
- IC50 ([9]; Homo sapiens, MDA-MB-231, Table 1): 0.005 ± 0.002 µM
- IC50 ([10]; Homo sapiens, HeLa, Table 1, mean ± SE): 0.004 ± 0.001 µM
- IC50 ([11]; Homo sapiens, Jurkat, Table 1, mean ± SE, 72 h): 0.001 ± 0.0002 µM

SMILES: COc1cc(Nc2cc(C)nc3nc(NCCCc4ccccc4)nn23)cc(OC)c1OC [Compound 7ad]
- EdU incorporation / cell proliferation [12]: effective in reducing HeLa cell proliferation
- IC50 ([1]; four of the five cell lines, read-out: IC50 values against four of the five cell lines): < 1 µM
- IC50 [3, 19]: 0.38 ± 0.06 µM
- ROS production [13]: significantly increased ROS production in a dose-dependent manner
- Colchicine Binding % Inhibition ± SD [5]: 55 ± 3%
- Monomers (%) (monomeric JC-1) [14]: 33.4%
- concentration from which apoptosis was induced [15]: 50 nM
- IC50 [6]: > 10 µM
- IC50 [8]: > 10 µM
- cells arrested in the G2/M phase [16]: more than 70%
- concentration at which G2/M arrest began [16]: 25 nM
- IC50 ([17]; Table 1, mean ± SE): 0.19 ± 0.02 µM
- IC50 ([9]; Table 1): 0.091 ± 0.008 µM
- IC50 [18]: 0.142 µM
- IC50 ([18]; Table 1, mean ± SE, 72 h): 0.14 ± 0.011 µM
- IC50 ([10]; Table 1, mean ± SE): 0.067 ± 0.007 µM
- IC50 [11]: > 2 µM
- IC50 ([11]; Table 1, mean ± SE, 72 h): 2.72 ± 0.13 µM

SMILES: Cc1cc(Nc2ccc(F)c(Cl)c2)n2nc(NCCCc3ccccc3)nc2n1 [Compound 8r, N^7-(3-Chloro-4-fluorophenyl)-5-methyl-N^2-(3-phenylpropyl)-[1,2,4]triazolo [1,5-a]pyrimidine-2,7-diamine]
- EdU incorporation / cell proliferation [12]: effective in reducing HeLa cell proliferation
- IC50 ([1]; Homo sapiens, mean over the five cancer cell lines, read-out: mean IC50 (antiproliferative activity)): 0.101 µM
- melting point: 168 to 170 °C
- fold more potent than CA-4, tubulin polymerization [3]: about 2 fold
- IC50 ([3]; read-out: IC50 tubulin polymerization): 0.39 µM
- IC50 [3, 19]: 0.52 ± 0.06 µM
- ROS production [13]: significantly increased ROS production in a dose-dependent manner
- Colchicine Binding % Inhibition ± SD [5]: 87 ± 0.8%
- Monomers (%) (monomeric JC-1) [14]: 16.6%
- concentration from which apoptosis was induced [15]: 50 nM
- IC50 ([6]; Homo sapiens): > 10 µM
- IC50 ([8]; Homo sapiens): > 10 µM
- cells arrested in the G2/M phase [16]: more than 70%
- concentration at which G2/M arrest began [16]: 25 nM
- IC50 ([17]; Homo sapiens, A549, Table 2, mean ± SE): 0.081 ± 0.002 µM
- IC50 ([9]; Homo sapiens, MDA-MB-231, Table 2): 0.098 ± 0.02 µM
- IC50 ([18]; Homo sapiens, HT-29, Table 2, mean ± SE, 72 h): 0.058 ± 0.01 µM
- IC50 ([10]; Homo sapiens, HeLa, Table 2, mean ± SE): 0.035 µM
- IC50 ([11]; Homo sapiens, Jurkat, Table 2, mean ± SE, 72 h): 0.23 ± 0.02 µM

Source: publication PMC9230136 (Pharmaceutics, 2022)
